Assay results taken from patent US20230295164A1, “COMPOUNDS HAVING ANTIBACTERIAL ACTIVITY” (The Trustees of Princeton University, priority 2020, published 2023).
≈ marks a conversion by molar mass, not a printed value.

Key:
Experiment in all cases: MIC testing, broth microdilution in CAMHB
Format in all cases: cell-based
[1] = tested on: Acinetobacter baumannii, ATCC 17978; conditions: 18-20 hr, lowest concentration that completely inhibits visible growth; for Compound MICs, Acinetobacter baumannii, ATCC 17978: 37° C.; for MIC: Acinetobacter baumannii, ATCC17978, 37° C., read-out: Compound MICs, Acinetobacter baumannii, ATCC 17978
Protocol: (§1) Compounds 1-71 were subsequently tested to determine MICs of the compounds relative to the following five species/strains of bacteria: Staphylococcus aureus, NRS384; Enterococcus faecalis, ATCC 51575; Salmonella typhimurium, CMCC 50115; Escherichia coli, ATCC BAA-198; and Acinetobacter baumannii, ATCC 17978. MIC testing of compounds was conducted according to the following protocol.
(§2) For each strain to be tested, made fresh streaks onto CAMHA from −80° C. glycerol stocks.
(§3) • CAMHB: Dissolved 22 g of the powder per 1 L of purified water. Mixed well. Autoclaved at 121° C. for 10 minutes. Stored at room temperature (RT) for no more than 1 week. • Saline: Dissolved 9 g of the powder per 1 L of purified water. Mixed well. Autoclaved at 121° C. for 30 minutes. Stored at room temperature (RT) for no more than 1 week.
(§4) Prepared the stock solutions of the tested compounds.
(§5) For compounds: • a) Dispensed 20 ul compound to the wells in column 1, and 20 ul DMSO to the wells in column 2 to 12; • b) Diluted the compounds by transferring 10 ul compounds from column 1 to 20 ul DMSO in column 2; mix with pipette. • c) Repeated until column 11 to get 3×serial dilutions. Column 12 was the DMSO control.
(§6) A multichannel pipette was used to deliver 1 μl of the diluted compound into each well of the corresponding daughter plate.
(§7) Scraped 4-8 single colonies from an agar plate into 5 ml saline in a 14 ml Falcon conical tube. Vortexed the tube to suspend the bacteria. Adjusted the turbidity to ˜0.2 (corresponding to 0.5 McFarland) with an Ultrospec 10 Cell density meter.
(§8) The strain suspension was diluted 200-fold in CAMHB medium and dispense into a sterile reservoir. A multichannel pipette was then used to deliver 99 μl of the diluted inocula into each well of the corresponding daughter plate.
(§9) Incubate the daughter plates at 37° C., 85% humidity for 18-20 hr.
(§10) A magnifying mirror device was used for ease of scoring the presence or absence of growth in the wells. 96-well micro-plates were photographed.

[2] = tested on: Enterococcus faecalis, ATCC 51575; conditions: 18-20 hr, lowest concentration that completely inhibits visible growth; for Compound MICs, Enterococcus faecalis, ATCC 51575: 37° C.; for MIC: Enterococcus faecalis, ATCC51575, 37° C., read-out: Compound MICs, Enterococcus faecalis, ATCC 51575
Protocol: as §1, §2, §3, §4, §5, §6, §7, §8, §9, §10

[3] = tested on: Escherichia coli, ATCC BAA-198; conditions: 18-20 hr, lowest concentration that completely inhibits visible growth; for Compound MICs, Escherichia coli, ATCC BAA-198: 37° C.; for MIC: Escherichia coli, ATCCBAA198, 37° C., read-out: Compound MICs, Escherichia coli, ATCC BAA-198
Protocol: as §1, §2, §3, §4, §5, §6, §7, §8, §9, §10

[4] = tested on: Salmonella typhimurium, CMCC 50115; conditions: 37° C., 18-20 hr, lowest concentration that completely inhibits visible growth; for MIC: Salmonella enterica, read-out: Compound MICs, Salmonella typhimurium, CMCC 50115
Protocol: as §1, §2, §3, §4, §5, §6, §7, §8, §9, §10

[5] = tested on: Staphylococcus aureus, NRS384; conditions: 18-20 hr, lowest concentration that completely inhibits visible growth; for Compound MICs, Staphylococcus aureus, NRS384: 37° C.; for MIC: Staphylococcus aureus, NRS384, 37° C., read-out: Compound MICs, Staphylococcus aureus, NRS384
Protocol: as §1, §2, §3, §4, §5, §6, §7, §8, §9, §10

Row | Compound | Compound MICs, Acinetobacter baumannii, ATCC 17978 [1] [µg/mL] | Compound MICs, Enterococcus faecalis, ATCC 51575 [2] [µg/mL] | Compound MICs, Escherichia coli, ATCC BAA-198 [3] [µg/mL] | Compound MICs, Salmonella typhimurium, CMCC 50115 [4] [µg/mL] | Compound MICs, Staphylococcus aureus, NRS384 [5] [µg/mL] | MIC [1] [µg/mL] | MIC [2] [µg/mL] | MIC [3] [µg/mL] | MIC [4] [µg/mL] | MIC [5] [µg/mL]
1 | Nc1nc(N)c2c(ccc3c2ccn3Cc2ccc3ccccc3c2)n1 [Compound 26] | 2.37 | 0.09 | 2.37 | 0.26 | 0.09 |  |  |  |  | 
2 | Nc1nc(N)c2c(ccc3c2ccn3Cc2ccc(B(O)O)cc2)n1 [Compound 51] | >64 | 0.003 | 21.3 | 0.26 | 0.26 |  |  |  |  | 
3 | Nc1nc(N)c2c(n1)c(-c1cccnc1)cc1c2ccn1Cc1ccc(F)cc1 [Compound 43] | 64 | 0.09 | 64 | 2.37 | 2.37 |  |  |  |  | 
4 | Nc1nc(N)c2c(ccc3c2ccn3Cc2csc(C(F)(F)F)n2)n1 [Compound 60] | 21.3 | 0.09 | 7.11 | 0.79 | 0.79 |  |  |  |  | 
5 | Cc1cc2c(ccn2Cc2ccc(F)cc2)c2c(N)nc(N)nc12 [Compound 55] | 2.37 | 0.03 | 7.11 | 0.26 | 0.26 |  |  |  |  | 
6 | NCC#Cc1ccc(Cn2ccc3c4c(N)nc(N)nc4ccc32)cc1 [Compound 24] | 64 | 0.26 | 7.11 | 0.26 | 0.79 |  |  |  |  | 
7 | CC#Cc1ccc(Cn2ccc3c4c(N)nc(NC5CC5)nc4ccc32)cc1 [Compound 18] | 21.3 | 0.79 | 21.3 | 7.11 | 2.37 |  |  |  |  | 
8 | Nc1nc(N)c2c(n1)c(C1CC1)cc1c2ccn1Cc1ccc(F)cc1 [Compound 49] | >64 | 0.26 | >64 | 2.37 | 2.37 |  |  |  |  | 
9 | CC(C)c1ccc(Cn2ccc3c4c(N)nc(N)nc4ccc32)nc1 [Compound 59] | 7.11 | 0.03 | 21.3 | 0.26 | 0.26 |  |  |  |  | 
10 | COc1ccnc(Cn2ccc3c4c(N)nc(N)nc4ccc32)c1 [Compound 63] |  |  |  |  |  | 21.3 (≈ 66.5 µM) | 0.09 (≈ 0.281 µM) | 21.3 (≈ 66.5 µM) | 0.26 (≈ 0.812 µM) | 0.26 (≈ 0.812 µM)
11 | COc1ccc(Br)cc1Cn1ccc2c3c(N)nc(N)nc3ccc21 [Compound 70] |  |  |  |  |  | 2.37 (≈ 5.95 µM) | ≤ 0.001 | 2.37 (≈ 5.95 µM) | 0.26 (≈ 0.653 µM) | 0.01 (≈ 0.0251 µM)
12 | COc1cc(Cn2ccc3c4c(N)nc(N)nc4ccc32)cc(OC)c1 [Compound 66] | 7.11 | 0.01 | 2.37 | 0.26 | 0.09 |  |  |  |  | 
13 | C=C(Cn1ccc2c3c(N)nc(N)nc3c(Br)cc21)C(=O)OC [Compound 54] | 64 | 0.003 | >64 | 21.3 | 2.37 |  |  |  |  | 
14 | Nc1nc(N)c2c(ccc3c2ccn3Cc2ccc([N+](=O)[O-])cc2)n1 [Compound 34] | 21.3 | 0.09 | 7.11 | 0.26 | 0.26 |  |  |  |  | 
15 | C=C(Cn1ccc2c3c(N)nc(N)nc3ccc21)C(=O)OC [Compound 62] | 21.3 | 0.003 | 21.3 | 0.26 | 0.79 |  |  |  |  | 
16 | Nc1nc(N)c2c(ccc3c2ccn3Cc2cccc(Cl)c2Cl)n1 [Compound 68] | 2.37 | 0.01 | 2.37 | 0.26 | 0.03 |  |  |  |  | 
17 | Nc1nc(NC2CC2)nc2ccc3c(ccn3Cc3ccc(C#CC4CC4)cc3)c12 [Compound 20] | 64 | 0.79 | >64 | 21.3 | 2.37 |  |  |  |  | 
18 | C=Cc1ccc(Cn2ccc3c4c(N)nc(N)nc4ccc32)cc1 [Compound 33] | 7.11 | 0.03 | 2.37 | 0.26 | 0.26 |  |  |  |  | 
19 | COc1cccc(Cn2ccc3c4c(N)nc(N)nc4ccc32)n1 [Compound 67] | 0.26 | 0.01 | 2.37 | 0.26 | 0.09 |  |  |  |  | 
20 | C#Cc1ccc(Cn2ccc3c4c(N)nc(N)nc4ccc32)cc1 [Compound 1] |  |  |  |  |  | 2.37 (≈ 7.56 µM) | 0.01 (≈ 0.0319 µM) | 2.37 (≈ 7.56 µM) | 0.088 (≈ 0.281 µM) | 0.088 (≈ 0.281 µM)
21 | Cc1ccc(Cn2ccc3c4c(N)nc(N)nc4ccc32)c2ccccc12 [Compound 42] | 7.11 | 0.01 | 7.11 | 0.79 | 0.03 |  |  |  |  | 
22 | Nc1nc(N)c2c(ccc3c2ccn3Cc2ccc(Br)c3ccccc23)n1 [Compound 44] | 64 | 0.03 | 7.11 | 7.11 | 0.09 |  |  |  |  | 
23 | CC(C)(C)OC(=O)NCC#Cc1ccc(Cn2ccc3c4c(N)nc(N)nc4ccc32)cc1 [Compound 16] | >64 | 0.09 | >64 | 21.3 | 0.79 |  |  |  |  | 
